Assay [1] is described as follows: A Cell Based Assay for the Identification of Probe candidate Compounds with Anti- Venezuelan Equine Encephalitis virus. [Related pubchem assays: 2409, 2419, 1621, 2238, 2405, 2024, 2065, 2402, 2414, 1635, 1650, 2244 ]. In kind it is functional.
The target of assay [2] is Kallikrein-7 (Homo sapiens, UniProt P49862). The experiment in a line: Fluorescence Intensity-based biochemical primary high throughput dose response assay to identify activators of kallikrein-7 (K7) zymogen.
Assay [3] has as its system Vero. The experiment in a line: cytotoxicity of synthesized analogs in Vero cells, SAR follow-up, cytotoxicity control for West Nile virus antiviral project, cell-based, set II (AID 2402). In kind it is functional. The following applies: Chlorocebus sabaeus.
Assay [4] addresses T1, Heat shock 70 kDa protein 1A (Homo sapiens, UniProt P0DMV8). In words: Hsp70 inhibitors, biochemical, TR-FRET (AID 786). (In TR-FRET formats the signal depends on donor and acceptor labels being close together.)
The target in assay [5] is T1, Heat shock 70 kDa protein 1A. In words: Hsp70 inhibitors, probe displacement, primary screen, biochemical, fluorescence polarization (AID 583).
Assay [6] in a line: inhibitors of intracellular T. cruzi replication, confirmation, NIH3T3 host cells, beta-gal luminescence (AID 2044).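 Note: intracellular parasites grown in NIH/3T3 mouse fibroblasts as host cells; luminescent beta-galactosidase reporter signal from transgenic T. cruzi replicating inside host cells; inhibitors lower the luminescence signal.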 The class given is functional, cell-based.
Assay [7] has as its target Neuropeptide Y receptor type 1 (Homo sapiens, UniProt P25929). The experiment in a line: Fluorescence-based counterscreen for agonists of NPY-Y2: cell-based high-throughput dose response assay for agonists of NPY-Y1. The class given is functional.
In assay [8] the target is Neuropeptide Y receptor type 2 (Homo sapiens, UniProt P49146). In words: Fluorescence-based cell-based high-throughput dose response assay for agonists of NPY-Y2. [Related pubchem assays: 1703 (Screening assay (CNGC inhibitors).), 1359 (Screening assay (NPY-Y2 potentiators or agonists).), 1304 (Screening assay (NPY-Y1 potentiators or agonists).), 1710 (Screening assay (NPY-Y2 agonists).), 1791 (Summary AID.)]. The class given is functional.

For assay [9], the system named is HEK293. In words: Fluorescence-based counterscreen for potentiators or agonists of NPY-Y2: cell-based high-throughput dose response assay to identify inhibitors of cyclic nucleotide gated ion channel (CNGC) activity. In this assay, the parental HEK293 cell line transfected with a cyclic-nucleotide gated ion channel (CNGC)-based cAMP sensor is used to measure inhibition of isoproterenol-induced CNGC activity by test compound. As to conditions: Homo sapiens. In kind it is functional.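 Note: stimulus is 1 µM isoproterenol at EC100 plus PDE inhibitor Ro 20-1724 at 25 µM.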

A short description of assay [10]: cytotoxicity toward NIH3T3 fibroblasts, dose response, counter-screen, cell-based, ATP luminescence, mouse fibroblasts (AID 2010).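 Note: cells exposed to compound for about 90 hours before reading.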 In kind it is functional. For orientation: The purpose of a counterscreen is to sort out artefacts and off-target activity.
Assay [11] concerns the target T2, Estrogen receptor (Homo sapiens, UniProt P03372).
T2 sequence (P03372 whole entry): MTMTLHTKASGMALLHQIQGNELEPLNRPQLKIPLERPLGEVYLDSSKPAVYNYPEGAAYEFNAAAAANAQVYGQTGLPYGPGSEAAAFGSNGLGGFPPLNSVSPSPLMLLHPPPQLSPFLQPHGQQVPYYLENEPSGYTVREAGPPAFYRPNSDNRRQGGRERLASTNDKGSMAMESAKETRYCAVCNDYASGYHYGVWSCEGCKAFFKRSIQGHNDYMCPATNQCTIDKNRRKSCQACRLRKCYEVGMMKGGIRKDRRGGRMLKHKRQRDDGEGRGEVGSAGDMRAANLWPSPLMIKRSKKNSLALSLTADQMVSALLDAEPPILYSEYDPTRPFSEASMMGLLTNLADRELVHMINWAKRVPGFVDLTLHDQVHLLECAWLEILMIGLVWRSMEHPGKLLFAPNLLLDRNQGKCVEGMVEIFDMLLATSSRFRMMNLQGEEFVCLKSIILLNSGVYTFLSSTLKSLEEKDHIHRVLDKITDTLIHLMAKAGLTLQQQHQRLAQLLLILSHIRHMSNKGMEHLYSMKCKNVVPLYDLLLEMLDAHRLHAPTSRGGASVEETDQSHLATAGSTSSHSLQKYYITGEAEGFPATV
In words: ERα–SRC-3 coactivator interaction inhibitors, confirmation, orthogonal assay, biochemical, ELISA, streptavidin-HRP readout (AID 1079). Background: In an ELISA, binding on a coated surface is turned into a signal by an enzyme label.

The nature of assay [12]: inhibitors of Bluetongue virus cytopathic effect, confirmation, arbovirus, BSR cells (AID 1250).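 Note: protection from viral cytopathic effect measured as cell viability by ATP luminescence.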 In kind it is functional.

Calls of active or inactive are those of the source.

T1 sequence (P0DMV8 whole entry): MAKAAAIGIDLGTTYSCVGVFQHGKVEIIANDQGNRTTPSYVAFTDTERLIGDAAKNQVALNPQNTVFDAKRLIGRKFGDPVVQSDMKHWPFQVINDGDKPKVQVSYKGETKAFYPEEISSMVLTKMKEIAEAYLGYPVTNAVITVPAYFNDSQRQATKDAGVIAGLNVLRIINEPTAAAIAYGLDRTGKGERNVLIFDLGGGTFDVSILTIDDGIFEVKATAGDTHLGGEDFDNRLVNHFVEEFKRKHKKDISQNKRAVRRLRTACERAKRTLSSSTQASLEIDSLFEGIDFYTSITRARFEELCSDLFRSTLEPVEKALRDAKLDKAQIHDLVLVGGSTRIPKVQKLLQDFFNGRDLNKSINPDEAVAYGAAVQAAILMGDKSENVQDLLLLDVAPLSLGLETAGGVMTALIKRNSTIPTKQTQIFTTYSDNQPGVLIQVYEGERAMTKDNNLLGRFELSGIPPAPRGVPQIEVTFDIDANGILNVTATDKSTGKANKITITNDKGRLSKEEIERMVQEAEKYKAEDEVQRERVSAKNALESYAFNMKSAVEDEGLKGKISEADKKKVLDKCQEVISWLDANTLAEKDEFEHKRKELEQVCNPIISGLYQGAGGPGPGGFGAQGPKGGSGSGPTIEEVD
Sequence of Neuropeptide Y receptor type 2 (P49146 whole entry): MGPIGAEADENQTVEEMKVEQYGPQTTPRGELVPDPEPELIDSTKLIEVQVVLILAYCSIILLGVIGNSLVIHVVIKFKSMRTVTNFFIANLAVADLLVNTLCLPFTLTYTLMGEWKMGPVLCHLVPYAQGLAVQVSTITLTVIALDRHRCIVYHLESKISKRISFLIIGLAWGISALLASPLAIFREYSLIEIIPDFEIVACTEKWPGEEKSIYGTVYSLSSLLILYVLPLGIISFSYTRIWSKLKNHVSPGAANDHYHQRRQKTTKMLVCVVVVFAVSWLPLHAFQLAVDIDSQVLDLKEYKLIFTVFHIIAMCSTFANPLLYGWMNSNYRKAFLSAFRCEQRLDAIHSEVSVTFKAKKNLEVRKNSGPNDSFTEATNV
Sequence of Neuropeptide Y receptor type 1 (P25929 whole entry): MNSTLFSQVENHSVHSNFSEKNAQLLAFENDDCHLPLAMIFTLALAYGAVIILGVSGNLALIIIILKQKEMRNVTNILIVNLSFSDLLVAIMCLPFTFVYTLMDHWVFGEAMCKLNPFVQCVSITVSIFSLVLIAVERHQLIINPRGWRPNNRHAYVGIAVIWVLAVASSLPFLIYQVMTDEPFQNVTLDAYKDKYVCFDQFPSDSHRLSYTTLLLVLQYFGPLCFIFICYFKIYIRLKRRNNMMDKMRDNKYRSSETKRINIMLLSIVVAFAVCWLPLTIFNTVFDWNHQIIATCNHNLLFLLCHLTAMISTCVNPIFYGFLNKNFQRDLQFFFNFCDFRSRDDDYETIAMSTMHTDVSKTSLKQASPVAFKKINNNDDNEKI
Sequence of Kallikrein-7 (P49862 whole entry): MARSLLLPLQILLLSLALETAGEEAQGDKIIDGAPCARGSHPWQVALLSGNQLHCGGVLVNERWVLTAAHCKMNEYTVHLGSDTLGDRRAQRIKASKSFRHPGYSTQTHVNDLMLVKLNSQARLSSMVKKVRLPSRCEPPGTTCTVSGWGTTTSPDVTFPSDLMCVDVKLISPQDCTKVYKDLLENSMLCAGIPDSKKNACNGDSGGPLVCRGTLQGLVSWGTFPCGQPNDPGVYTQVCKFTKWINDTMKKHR

`OC1c2cc(Cl)cc(Cl)c2N=C2CCCN21` (configuration not stated): the IC50 in [1] is < 0.26 µM (active). The EC50 in assay [2] is 48.5 µM (inactive). Besides, in [3], the CC50 was > 200 µM (active).

Consider `CC(=O)Nc1cc2c(cc1C(C)=O)OCCO2`, for which the concentration for half-maximal inhibition (IC50) in assay [4] and in [5] was > 100 µM (not active) throughout.

`Nc1c(-c2ccccc2)c(CSc2nc3ccccc3[nH]2)nn1-c1ccc(Cl)cc1`: the EC50 in [6] is 0.595 µM (active); in [7], 7.41 µM (active); in assay [8], 6.65 µM (active); in assay [9], > 35.4 µM (not active); in assay [10] it was 12.2 µM (active).

Consider `O=C(CCCCCn1c(=S)[nH]c2ccccc2c1=O)N1CCC(N(Cc2ccccc2)c2ccccc2)CC1`, for which, in assay [11], the IC50 was 0.12 µM (not active).

In the case of `Cc1ccc2cc(C3CC(c4ccco4)=NN3S(=O)(=O)c3ccccc3)c(Cl)nc2c1` (configuration not stated), the IC50 in [12] was 40.7 µM (active).

A word on the IC50: it is the midpoint of a concentration-inhibition curve. A word on the EC50: it is the concentration needed to bring the measured effect to its halfway point. One may read the CC50 as the concentration at which the toxic effect on the cells reaches its halfway point.
